“Also recorded” adds a separate entry of the source.
Columns and labels:
Type in all cases: cell-based, human
hCASMCs [1] = assay: Gene expression assay (TaqMan real-time PCR) in hCASMCs
Procedure: FIG. 32 depicts graphs of the effects of PPAR agonists on gene expressions in hCASMCs. HCASMCs were maintained under the same condition with FIG. 23A-23C. Next day after cell seeding, medium was changed to 1% FCS DMEM. After 24 hours, hCASMCs were stimulated by 100 nM K-877 (K877), 100 nM GW-501516 (GW) and 100 nM rosiglitazone (Rosi). After 18 hours, the mRNA samples were isolated by TRIzol Reagent.
FIGS. 33A-33D depict the effects of CROT silencing on CDNK1A (FIG. 33A), DUSP1 (FIG. 33B), HMOX1 (FIG. 33C) and SAT1 (FIG. 33D) gene expression in hCASMCs. HCASMCs were maintained under the same condition with FIGS. 23A-23C. The mRNA samples from hCASMCs were isolated using TRIzol Reagent on Day 7. *: P<0.05, **: P<0.01 (vs. NM-siCont or OM-siCont, Student's t-test, N=3).
HCASMCs were maintained under the same condition with FIGS. 23A-23C. BMP7 was not detected. The mRNA samples from hCASMCs were isolated using TRIzol Reagent on Day 7. *: P<0.05 (vs. OM-siCont, Student's t-test, N=3).
FIG. 35 depicts the effects of PPAR agonists GW-501516 on SLC20A1 gene expression in hCASMCs. HCASMCs were maintained under the same condition with FIGS. 23A-23C. HCASMCs were stimulated by 100 nM GW-501516 (GW). After 18 hours, the mRNA samples were isolated by TRIzol Reagent. **: P<0.01, (vs. Control, Student's t-test, N=3).
RNA preparation and real-time PCR. Total RNA from the cell culture was isolated using TRIZol (Life Technologies). Reverse transcription was performed using the QuantiTect Reverse Transcription Kit (Qiagen). The mRNA expression was determined by TaqMan-based real-time PCR reactions (Life Technologies). The following TaqMan probes were used: 4326315E (human β-actin), (human SLC20A1), (human BMP2), (human BMP4), (human BMP7). The expression levels were normalized to β-actin. Results were calculated using the […] method, and presented as fold increase relative to control.

TNAP activity in hCASMCs = assay: Tissue non-specific alkaline phosphatase (TNAP) activity in cell cultures; conditions: hCASMCs in osteogenic medium with siRNA; Day 14
Procedure: (§1) FIGS. 22A-22C depict the effects of the SORT1, AASS, CROT, IL1R1, ITGBL1, METTL7A and NNMT silencing on calcium deposition and TNAP activity in hCASMCs. HCASMCs were treated with siRNAs in NM. After 3 days, the medium was changed to OM with the siRNA. On Day 21, cells were fixed in 4% formalin for 10 min and washed twice with PBS for Alizarin Red staining. The cells were stained with 2% Alizarin Red solution for 20 min at RT and rinsed twice with water (FIG. 22A). Then, the Alizarin Red was extracted by 10 mM cetylpyridinium chloride and the extracts were measured on the absorbance (540 nm) (FIG. 22B). On Day 14, TNAP activity was determined using Alkaline Phosphatase Activity Colorimetric Assay Kit (FIG. 22C).
(§2) FIGS. 23A-23C depict teffects of the CROT silencing on calcium deposition and TNAP activity in hCASMCs. HCASMCs were treated with siRNAs in NM. After 3 days, the medium was changed to OM with the siRNA. […] Then, the Alizarin Red was extracted by 10 mM cetylpyridinium chloride and the extracts were measured on the absorbance (540 nm) (FIG. 23B). On Day 14, TNAP activity was determined using Alkaline Phosphatase Activity Colorimetric Assay Kit (FIG. 23C). **: P<0.01, ***: P <0.001 (vs. OM-siControl, Student's t-test, N=3-4). […]
Tissue non-specific alkaline phosphatase (TNAP) activity was measured in cell cultures using the Alkaline Phosphatase Activity Colorimetric Assay Kit (BioVision). […]

hCASMCs [2] = assay: Mineralization assay (Alizarin Red staining, calcium deposition); conditions: hCASMCs in osteogenic medium with siRNA, Day 21
Procedure: as §1
as §2, with “NM.” for “NM. After 3 days, the medium was changed to OM with the siRNA.”
Mineralization assay and activity of tissue non-specific alkaline phosphatase. Mineralized matrix formation was assessed by Alizarin Red staining. […] Aliquots were taken and measured with a spectrophotometer at 540 nm.

For `Cc1cc(SCc2sc(-c3ccc(C(F)(F)F)cc3)nc2C)ccc1OCC(=O)O` [PPARδ agonist, GW-501516], the SLC20A1 gene expression (hCASMCs [1]; PPARδ agonist, after 24 h) was “suppressed; also recorded: reduced”, the CDKN1A gene expression (hCASMCs [1]; response to PPARδ agonist) was “affected” and the DUSP1 gene expression (hCASMCs [1]; response to PPARδ agonist) was “affected”. For the same molecule, the HMOX1 gene expression (hCASMCs [1]; response to PPARδ agonist) was “affected” and the SAT1 gene expression (hCASMCs [1]; response to PPARδ agonist) was “affected”.
For “siCROT: siRNA silencing CROT; patent names inhibitory nucleic acid CACUUCAGCUGGCCUAUUA (SEQ ID NO: 1) as CROT inhibitor (listed as RNA, chemistry not given here)”, the TNAP activity (TNAP activity in hCASMCs) was “decreased”, the Ca deposition (hCASMCs [2]) was “decreased” and the HMOX1 expression (hCASMCs [1]; CROT siRNA, Day 7) was “induced”.
